Measurements reported in ChEMBL document CHEMBL4507257, “Data for DCP probe ABT-100” (2021).

Columns and labels:
[1] = target: 5-hydroxytryptamine receptor 2A (Homo sapiens) (UniProt P28223); details: Compound concentration 10.0 uM
[2] = target: Insulin receptor-related protein (Homo sapiens) (UniProt P14616); details: Compound concentration 1000.0 nM
[3] = system: Tyrosine-protein kinase ABL1 (Homo sapiens), P00519 [Q252H]; details: Compound concentration 1000.0 nM
[4] = target: Serine/threonine-protein kinase SIK3 (Homo sapiens) (UniProt Q9Y2K2); details: Compound concentration 1000.0 nM
[5] = target: Tyrosine-protein kinase ITK/TSK (Homo sapiens) (UniProt Q08881); details: Compound concentration 1000.0 nM
[6] = target: Serine/threonine-protein kinase WNK2 (Homo sapiens) (UniProt Q9Y3S1); details: Compound concentration 1000.0 nM
[7] = target: Serine/threonine-protein kinase 16 (Homo sapiens) (UniProt O75716); details: Compound concentration 1000.0 nM
[8] = target: Serine/threonine-protein kinase N2 (Homo sapiens) (UniProt Q16513); details: Compound concentration 1000.0 nM
[9] = target: MAP kinase-activated protein kinase 5 (Homo sapiens) (UniProt Q8IW41); details: Compound concentration 1000.0 nM
[10] = target: Rho-associated protein kinase 1 (Homo sapiens) (UniProt Q13464); details: Compound concentration 1000.0 nM
[11] = target: Serine/threonine-protein kinase D1 (Homo sapiens) (UniProt Q15139); details: Compound concentration 1000.0 nM
[12] = target: Sigma non-opioid intracellular receptor 1 (Homo sapiens, UniProt Q99720); assay: GPCRScan assay: inhibition of Sigma 1; design: radioligand conc. used [nm] 4.0 – 5.0, parental cells HEKT
[13] = target: Tyrosine-protein kinase ABL1 (Homo sapiens) (UniProt P00519); details: Compound concentration 1000.0 nM
[14] = system: Serine/threonine-protein kinase B-raf (Homo sapiens), P15056 [V600E]; details: Compound concentration 1000.0 nM
[15] = target: Tyrosine-protein kinase ABL1 (Homo sapiens) (UniProt P00519); details: Compound concentration 1000.0 nM; remark: listed apart in the source
[16] = target: Sodium-dependent dopamine transporter (Homo sapiens) (UniProt Q01959); details: Compound concentration 10.0 uM
[17] = target: Mast/stem cell growth factor receptor Kit (Homo sapiens) (UniProt P10721); details: Compound concentration 1000.0 nM
[18] = target: Mitogen-activated protein kinase kinase kinase 7 (Homo sapiens) (UniProt O43318); details: Compound concentration 1000.0 nM
[19] = target: Serine/threonine-protein kinase tousled-like 2 (Homo sapiens) (UniProt Q86UE8); details: Compound concentration 1000.0 nM
[20] = target: RAC-gamma serine/threonine-protein kinase (Homo sapiens) (UniProt Q9Y243); details: Compound concentration 1000.0 nM
[21] = target: Calcium/calmodulin-dependent protein kinase type II subunit alpha (Homo sapiens) (UniProt Q9UQM7); details: Compound concentration 1000.0 nM
[22] = target: Serine/threonine-protein kinase NIM1 (Homo sapiens) (UniProt Q8IY84); details: Compound concentration 1000.0 nM
[23] = system: Epidermal growth factor receptor (Homo sapiens), P00533 [T790M]; details: Compound concentration 1000.0 nM
[24] = target: Homeodomain-interacting protein kinase 2 (Homo sapiens, UniProt Q9H2X6); assay: Inhibition of HIPK2 at compound concentration of 10.0 uM using the ScanMax (DiscoverX)
[25] = target: Type-2 angiotensin II receptor (Homo sapiens) (UniProt P50052); assay: AT2 (h) Ligand binding assay; details: Compound concentration 10.0 uM
[26] = target: Adrenergic receptor alpha-2 (Homo sapiens) (UniProt P08913+P18825+P18089); assay: alpha2 (non-selective) Ligand binding assay; assay type: protein assay; details: Compound concentration 10.0 uM
[27] = target: T1, Muscarinic acetylcholine receptor M1 (Homo sapiens) (UniProt P11229); assay: M1 (h) Ligand binding assay; details: Compound concentration 10.0 uM
T1 sequence (whole entry): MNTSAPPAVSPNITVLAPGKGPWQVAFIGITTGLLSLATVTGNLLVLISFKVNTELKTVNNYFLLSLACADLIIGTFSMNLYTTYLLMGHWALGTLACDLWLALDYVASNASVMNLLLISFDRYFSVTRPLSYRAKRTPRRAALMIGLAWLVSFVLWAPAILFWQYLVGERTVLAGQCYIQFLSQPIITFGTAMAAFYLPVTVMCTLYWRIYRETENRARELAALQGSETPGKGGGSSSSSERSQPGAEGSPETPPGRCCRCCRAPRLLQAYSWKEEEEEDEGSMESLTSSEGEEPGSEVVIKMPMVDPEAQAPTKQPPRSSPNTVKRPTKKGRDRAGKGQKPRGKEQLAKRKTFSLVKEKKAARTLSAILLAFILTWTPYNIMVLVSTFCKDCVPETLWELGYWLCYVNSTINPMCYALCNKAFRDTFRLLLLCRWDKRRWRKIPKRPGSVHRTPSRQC

[28] = target: Bombesin receptor (Homo sapiens) (UniProt P28336+P32247+P30550); assay: Bombesin Ligand binding assay; assay type: protein assay; details: Compound concentration 10.0 uM
[29] = target: Neuromedin-K receptor (Homo sapiens) (UniProt P29371); assay: NK3 (h) Ligand binding assay; details: Compound concentration 10.0 uM
[30] = target: Platelet-derived growth factor receptor (Homo sapiens) (UniProt P09619+P16234); assay: PDGF Ligand binding assay; assay type: protein-complex assay; details: Compound concentration 10.0 uM
[31] = target: 5-hydroxytryptamine receptor 6 (Homo sapiens) (UniProt P50406); assay: 5-HT6 (h) Ligand binding assay; details: Compound concentration 10.0 uM
[32] = target: Gastrin/cholecystokinin type B receptor (Homo sapiens) (UniProt P32239); assay: CCKB (h) Ligand binding assay; details: Compound concentration 10.0 uM
[33] = target: Cannabinoid receptor 1 (Homo sapiens) (UniProt P21554); assay: CB1 (h) (central) Ligand binding assay
[34] = target: Muscarinic acetylcholine receptor M2 (Homo sapiens) (UniProt P08172); details: Compound concentration 10.0 uM
[35] = target: Substance-P receptor (Homo sapiens) (UniProt P25103); assay: NK1 (h) Ligand binding assay
[36] = Cl- ionophore Ligand binding assay
[37] = target: GABA-A receptor; anion channel (Rattus norvegicus) (UniProt O09028+P15431+P18506+P18508+P19969+P20236+P23574+P23576+P28471+P28473+P30191+P62813+P63079+P63138+Q91ZM7+Q9ES14); details: Compound concentration 10.0 uM
[38] = target: Calcium-activated potassium channel (Homo sapiens) (UniProt Q92952+Q9UGI6+Q12791+O15554+Q9H2S1+A8MYU2); assay: K+ channel (Ca2+ - dependent) Ligand binding assay; assay type: protein assay; details: Compound concentration 10.0 uM

Sequence of Cannabinoid receptor 1 (Homo sapiens) (P21554 whole entry): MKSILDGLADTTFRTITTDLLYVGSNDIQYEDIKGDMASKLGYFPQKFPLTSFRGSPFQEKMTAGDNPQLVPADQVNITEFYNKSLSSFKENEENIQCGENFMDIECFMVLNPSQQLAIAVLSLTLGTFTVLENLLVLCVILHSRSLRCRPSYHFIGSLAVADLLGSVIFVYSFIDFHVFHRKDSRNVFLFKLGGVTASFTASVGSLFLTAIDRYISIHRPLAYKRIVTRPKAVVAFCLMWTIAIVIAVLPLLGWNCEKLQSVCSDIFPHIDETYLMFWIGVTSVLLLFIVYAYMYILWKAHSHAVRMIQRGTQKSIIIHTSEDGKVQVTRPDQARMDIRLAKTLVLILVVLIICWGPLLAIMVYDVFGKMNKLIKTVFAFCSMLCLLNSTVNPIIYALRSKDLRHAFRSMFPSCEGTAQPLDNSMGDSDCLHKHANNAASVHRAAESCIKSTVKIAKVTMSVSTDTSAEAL
Sequence of Insulin receptor-related protein (Homo sapiens) (P14616 27-742 limits assumed): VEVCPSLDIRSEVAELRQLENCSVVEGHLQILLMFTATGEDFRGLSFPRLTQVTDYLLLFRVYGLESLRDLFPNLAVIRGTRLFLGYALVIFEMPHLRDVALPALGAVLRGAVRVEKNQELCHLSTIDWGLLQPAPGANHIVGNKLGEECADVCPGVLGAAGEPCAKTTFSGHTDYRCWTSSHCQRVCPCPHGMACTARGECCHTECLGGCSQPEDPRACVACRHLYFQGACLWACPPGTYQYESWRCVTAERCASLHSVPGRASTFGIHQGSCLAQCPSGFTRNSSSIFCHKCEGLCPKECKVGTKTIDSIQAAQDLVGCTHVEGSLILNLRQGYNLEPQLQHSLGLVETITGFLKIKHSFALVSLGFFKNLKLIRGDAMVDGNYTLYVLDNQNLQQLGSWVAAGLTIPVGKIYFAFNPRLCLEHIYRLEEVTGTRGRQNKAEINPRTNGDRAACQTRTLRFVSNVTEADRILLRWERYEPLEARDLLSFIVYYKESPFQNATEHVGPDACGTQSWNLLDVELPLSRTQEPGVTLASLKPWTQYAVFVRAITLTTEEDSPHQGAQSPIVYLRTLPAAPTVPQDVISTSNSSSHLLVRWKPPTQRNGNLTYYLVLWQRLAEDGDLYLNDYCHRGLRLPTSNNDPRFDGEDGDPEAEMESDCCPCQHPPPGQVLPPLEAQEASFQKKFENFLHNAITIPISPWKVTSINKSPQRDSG
Sequence of Insulin receptor-related protein (Homo sapiens) (P14616 747-1297 limits assumed): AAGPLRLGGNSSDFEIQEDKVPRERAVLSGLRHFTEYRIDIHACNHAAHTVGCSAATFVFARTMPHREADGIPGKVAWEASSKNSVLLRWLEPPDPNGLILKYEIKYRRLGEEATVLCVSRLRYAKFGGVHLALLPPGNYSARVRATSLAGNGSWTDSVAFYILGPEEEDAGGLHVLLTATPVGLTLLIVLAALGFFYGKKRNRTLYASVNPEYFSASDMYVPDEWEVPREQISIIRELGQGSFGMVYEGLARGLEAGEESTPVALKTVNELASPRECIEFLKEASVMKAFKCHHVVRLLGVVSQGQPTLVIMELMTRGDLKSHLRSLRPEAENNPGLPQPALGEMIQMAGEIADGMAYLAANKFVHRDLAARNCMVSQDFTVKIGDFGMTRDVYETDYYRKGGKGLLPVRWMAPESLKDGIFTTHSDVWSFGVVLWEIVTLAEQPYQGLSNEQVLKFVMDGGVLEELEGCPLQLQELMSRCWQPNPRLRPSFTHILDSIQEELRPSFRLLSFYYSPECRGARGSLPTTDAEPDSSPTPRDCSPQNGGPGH
Sequence of Serine/threonine-protein kinase N2 (Homo sapiens) (Q16513 whole entry, looked up): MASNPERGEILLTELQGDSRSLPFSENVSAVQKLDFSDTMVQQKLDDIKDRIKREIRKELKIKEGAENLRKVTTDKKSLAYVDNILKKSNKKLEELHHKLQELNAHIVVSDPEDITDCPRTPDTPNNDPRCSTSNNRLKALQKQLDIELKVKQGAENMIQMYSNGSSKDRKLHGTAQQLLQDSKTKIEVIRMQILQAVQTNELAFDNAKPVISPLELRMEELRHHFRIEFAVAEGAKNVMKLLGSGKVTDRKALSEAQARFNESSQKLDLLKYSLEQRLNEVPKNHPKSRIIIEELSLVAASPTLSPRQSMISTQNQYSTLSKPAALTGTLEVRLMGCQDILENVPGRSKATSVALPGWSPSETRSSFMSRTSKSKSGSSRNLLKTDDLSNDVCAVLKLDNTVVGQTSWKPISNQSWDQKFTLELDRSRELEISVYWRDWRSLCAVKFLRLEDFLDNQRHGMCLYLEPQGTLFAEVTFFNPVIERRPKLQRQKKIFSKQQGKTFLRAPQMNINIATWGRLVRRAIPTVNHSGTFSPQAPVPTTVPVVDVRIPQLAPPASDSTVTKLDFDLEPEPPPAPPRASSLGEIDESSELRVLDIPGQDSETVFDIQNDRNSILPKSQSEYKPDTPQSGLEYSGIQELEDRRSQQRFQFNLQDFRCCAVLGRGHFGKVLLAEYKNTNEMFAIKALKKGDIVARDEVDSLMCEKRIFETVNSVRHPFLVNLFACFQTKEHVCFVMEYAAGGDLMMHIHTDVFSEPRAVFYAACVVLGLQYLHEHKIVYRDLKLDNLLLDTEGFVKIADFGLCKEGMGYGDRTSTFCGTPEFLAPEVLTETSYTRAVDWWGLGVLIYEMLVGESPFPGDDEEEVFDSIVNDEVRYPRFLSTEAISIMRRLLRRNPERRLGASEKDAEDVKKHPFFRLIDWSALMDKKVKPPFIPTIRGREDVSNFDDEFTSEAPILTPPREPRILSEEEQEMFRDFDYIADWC
Sequence of Serine/threonine-protein kinase B-raf (Homo sapiens), P15056 [V600E] (P15056 whole entry V600E): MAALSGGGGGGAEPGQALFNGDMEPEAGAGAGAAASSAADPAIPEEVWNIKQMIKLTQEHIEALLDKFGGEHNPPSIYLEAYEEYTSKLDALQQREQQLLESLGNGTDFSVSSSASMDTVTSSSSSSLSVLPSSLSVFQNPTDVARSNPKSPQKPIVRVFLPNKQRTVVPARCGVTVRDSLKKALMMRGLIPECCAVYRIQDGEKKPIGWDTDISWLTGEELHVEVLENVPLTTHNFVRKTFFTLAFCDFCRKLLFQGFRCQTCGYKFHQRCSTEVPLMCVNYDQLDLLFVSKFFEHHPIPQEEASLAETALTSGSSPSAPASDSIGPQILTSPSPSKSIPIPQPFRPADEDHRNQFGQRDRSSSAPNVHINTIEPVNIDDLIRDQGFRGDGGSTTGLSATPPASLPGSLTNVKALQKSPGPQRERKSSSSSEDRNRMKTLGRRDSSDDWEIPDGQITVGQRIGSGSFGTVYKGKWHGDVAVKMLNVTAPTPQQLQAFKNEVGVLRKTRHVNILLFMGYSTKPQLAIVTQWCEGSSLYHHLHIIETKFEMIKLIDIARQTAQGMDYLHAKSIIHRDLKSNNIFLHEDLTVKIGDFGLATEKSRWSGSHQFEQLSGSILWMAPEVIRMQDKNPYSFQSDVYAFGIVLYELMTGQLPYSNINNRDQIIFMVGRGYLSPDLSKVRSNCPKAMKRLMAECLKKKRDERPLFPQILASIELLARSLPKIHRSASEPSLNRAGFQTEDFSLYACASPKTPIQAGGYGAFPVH
Sequence of Serine/threonine-protein kinase NIM1 (Homo sapiens) (Q8IY84 whole entry): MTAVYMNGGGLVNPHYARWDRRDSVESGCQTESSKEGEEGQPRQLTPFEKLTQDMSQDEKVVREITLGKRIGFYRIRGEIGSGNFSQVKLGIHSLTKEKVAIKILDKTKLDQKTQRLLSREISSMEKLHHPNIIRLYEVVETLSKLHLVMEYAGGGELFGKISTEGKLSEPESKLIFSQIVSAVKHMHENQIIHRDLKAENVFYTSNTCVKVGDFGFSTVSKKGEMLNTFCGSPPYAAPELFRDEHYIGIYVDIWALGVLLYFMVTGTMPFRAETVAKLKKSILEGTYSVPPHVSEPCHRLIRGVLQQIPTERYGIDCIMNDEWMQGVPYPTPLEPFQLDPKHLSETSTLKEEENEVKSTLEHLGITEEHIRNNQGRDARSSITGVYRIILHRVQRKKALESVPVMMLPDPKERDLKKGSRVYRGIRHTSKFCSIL
Sequence of MAP kinase-activated protein kinase 5 (Homo sapiens) (Q8IW41 whole entry): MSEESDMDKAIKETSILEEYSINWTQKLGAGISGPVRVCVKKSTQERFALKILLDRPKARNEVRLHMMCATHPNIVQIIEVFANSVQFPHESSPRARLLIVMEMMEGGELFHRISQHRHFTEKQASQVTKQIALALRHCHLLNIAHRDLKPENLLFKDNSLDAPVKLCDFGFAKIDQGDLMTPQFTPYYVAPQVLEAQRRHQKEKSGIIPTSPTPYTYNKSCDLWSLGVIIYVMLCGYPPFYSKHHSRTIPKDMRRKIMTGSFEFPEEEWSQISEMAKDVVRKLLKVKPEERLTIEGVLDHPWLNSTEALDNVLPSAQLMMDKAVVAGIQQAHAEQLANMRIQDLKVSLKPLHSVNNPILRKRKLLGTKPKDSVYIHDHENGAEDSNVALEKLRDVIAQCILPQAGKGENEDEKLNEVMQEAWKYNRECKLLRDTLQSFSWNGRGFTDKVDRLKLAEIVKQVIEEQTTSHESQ
Sequence of Calcium/calmodulin-dependent protein kinase type II subunit alpha (Homo sapiens) (Q9UQM7 whole entry): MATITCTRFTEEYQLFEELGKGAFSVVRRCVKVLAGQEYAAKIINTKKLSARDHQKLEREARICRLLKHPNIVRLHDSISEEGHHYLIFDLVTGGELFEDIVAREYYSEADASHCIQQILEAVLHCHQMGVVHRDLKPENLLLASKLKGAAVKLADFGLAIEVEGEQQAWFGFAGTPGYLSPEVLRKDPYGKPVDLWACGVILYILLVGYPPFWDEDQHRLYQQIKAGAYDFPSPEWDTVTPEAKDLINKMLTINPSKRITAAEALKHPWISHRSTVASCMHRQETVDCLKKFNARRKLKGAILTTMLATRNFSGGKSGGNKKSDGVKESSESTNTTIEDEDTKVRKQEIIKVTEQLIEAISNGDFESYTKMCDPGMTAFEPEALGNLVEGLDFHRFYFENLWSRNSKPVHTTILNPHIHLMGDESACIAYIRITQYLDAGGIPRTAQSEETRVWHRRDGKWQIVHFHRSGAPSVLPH

Question: Which inhibition [1] does the source give for `Cn1cncc1[C@@](O)(COc1ccc(C#N)cc1-c1ccc(OC(F)(F)F)cc1)c1ccc(C#N)cc1` [A-108] here?
Answer: -4.18%

Question: And the residual activity [2]?
Answer: 96%

Question: What about the residual activity [3] of the same compound?
Answer: 84%

Question: And the residual activity [4]?
Answer: 97%

Question: What about the residual activity [5] of the same compound?
Answer: 100%

Question: What about the residual activity [6] of the same compound?
Answer: 84%

Question: What about the residual activity [7] of the same compound?
Answer: 99%

Question: What about the residual activity [8] of the same compound?
Answer: 85%

Question: And the residual activity [9]?
Answer: 100%

Question: What about the residual activity [10] of the same compound?
Answer: 100%

Question: What about the residual activity [11] of the same compound?
Answer: 98%

Question: What about the Ki [12] of the same compound?
Answer: 91.6 nM

Question: What about the residual activity [13] of the same compound?
Answer: 96%

Question: And the residual activity [14]?
Answer: 100%

Question: What about the residual activity [15] of the same compound?
Answer: 95%

Question: What about the inhibition [16] of the same compound?
Answer: 6.63%

Question: What about the residual activity [17] of the same compound?
Answer: 90%

Question: What about the residual activity [18] of the same compound?
Answer: 67%

Question: What about the residual activity [19] of the same compound?
Answer: 97%

Question: And the residual activity [20]?
Answer: 100%

Question: And the residual activity [21]?
Answer: 84%

Question: What about the residual activity [22] of the same compound?
Answer: 97%

Question: What about the residual activity [23] of the same compound?
Answer: 68%

Question: For `Cn1cncc1[C@](O)(COc1ccc(C#N)cc1-c1ccc(OC(F)(F)F)cc1)c1ccc(C#N)cc1` [ABT-100], which inhibition [1] is on record?
Answer: -0.429%

Question: And the residual activity [2]?
Answer: 93%

Question: What about the residual activity [3] of the same compound?
Answer: 100%

Question: And the residual activity [4]?
Answer: 67%

Question: What about the residual activity [5] of the same compound?
Answer: 91%

Question: And the residual activity [6]?
Answer: 67%

Question: What about the residual activity [7] of the same compound?
Answer: 99%

Question: And the residual activity [8]?
Answer: 100%

Question: What about the Kd [24] of the same compound?
Answer: > 10000 nM (not active)

Question: And the inhibition [25]?
Answer: < 10%

Question: And the residual activity [9]?
Answer: 90%

Question: What about the residual activity [10] of the same compound?
Answer: 100%

Question: And the inhibition [26]?
Answer: < 10%

Question: And the residual activity [11]?
Answer: 99%

Question: What about the residual activity [13] of the same compound?
Answer: 100%

Question: What about the inhibition [27] of the same compound?
Answer: < 10%

Question: And the residual activity [14]?
Answer: 82%

Question: What about the inhibition [28] of the same compound?
Answer: < 10%

Question: What about the residual activity [15] of the same compound?
Answer: 100%

Question: And the inhibition [29]?
Answer: 45%

Question: What about the inhibition [16] of the same compound?
Answer: 9.99%

Question: And the inhibition [30]?
Answer: < 10%

Question: And the inhibition [31]?
Answer: < 10%

Question: And the inhibition [32]?
Answer: < 10%

Question: What about the residual activity [17] of the same compound?
Answer: 95%

Question: What about the inhibition ([33]; Compound concentration 1.0 uM) of the same compound?
Answer: 23%

Question: And the inhibition ([33]; Compound concentration 3.0 uM)?
Answer: 45%

Question: What about the inhibition ([33]; Compound concentration 10.0 uM) of the same compound?
Answer: 68%

Question: And the residual activity [18]?
Answer: 100%

Question: What about the residual activity [19] of the same compound?
Answer: 100%

Question: What about the residual activity [20] of the same compound?
Answer: 100%

Question: What about the inhibition [34] of the same compound?
Answer: -1.19%

Question: What about the inhibition ([35]; Compound concentration 3.0 uM) of the same compound?
Answer: 31%

Question: What about the inhibition ([35]; Compound concentration 10.0 uM) of the same compound?
Answer: 68%

Question: What about the residual activity [21] of the same compound?
Answer: 95%

Question: And the residual activity [22]?
Answer: 87%

Question: What about the inhibition ([36]; Compound concentration 3.0 uM) of the same compound?
Answer: 30%

Question: What about the inhibition ([36]; Compound concentration 10.0 uM) of the same compound?
Answer: 67%

Question: And the inhibition [37]?
Answer: 6.85%

Question: What about the residual activity [23] of the same compound?
Answer: 100%

Question: And the inhibition [38]?
Answer: < 10%
